Test results taken from patent US12459951B2, “Compounds that interact with RAS superfamily proteins for treatment of cancers, inflammatory diseases, rasopathies, and fibrotic disease” (SHY Therapeutics, LLC, priority 2022, dated 2025).

Assays:
[1] = tested on: Erk1/2 phosphorylation; test: Erk1/2 Phosphorylation Assay (western blot), Panc-1; type: cell-based, human; settings: at 10 μM, * = activation
Method: Protocol for Western Erk1/2 Cell-Based Phosphorylation Assay
This assay is referred to as the “Erk1/2 Phosphorylation Assay” throughout this application.
Cell lines: Human tumor-derived pancreatic cancer cell line Panc-1 (expressing KRas G12D mutant) was purchased from American Type Culture Collection and grown in complete DMEM-High Glucose medium, supplemented with penicillin (100 U/mL), streptomycin (100 μg/mL), and 10% heat-inactivated FBS at 37° C. in a humidified incubator with 5% CO2.
Method 1: Cells were plated at 350000 cells/well density in a 12-well plate, allowed 3 hours to adhere to the plate, then starved in the appropriate medium in the presence of 0.5% FBS overnight. The small molecules to be tested were added to the cells in the final concentration of 10 μM in the presence of 0.3% DMSO for 6 hours incubation at 37° C. For IC50 value determination, serial dilutions of compounds were added to cells under the same conditions. Next, cells were stimulated with 1.5 ng/ml EGF for 15 minutes then cells were lysed with lysis buffer containing 1% Triton X-100, EDTA, and Halt™ Protease & Phosphatase Inhibitor Cocktail (Thermo Scientific). Protein concentration was assessed by BCA protein assay (Thermo Scientific). Phosphorylation level of Erk1/2 was determined by western blot.
Method 2: Cells were plated at 350000 cells/well density in a 12-well plate in 10% FBS. The next day small molecules to be tested were added to the cells in the final concentration of 10 μM in the presence of 0.3% DMSO for 6 hours incubation at 37° C. For IC50 value determination, serial dilutions of compounds were added to cells under the same conditions. Next, cells were lysed with lysis buffer containing 1% Triton X-100, EDTA, and Halt™ Protease & Phosphatase Inhibitor Cocktail (Thermo Scientific). Protein concentration was assessed by BCA protein assay (Thermo Scientific). Phosphorylation level of Erk1/2 was determined by western blot.
Western blot protocol: Equal amounts of protein (15-50 μg) were separated by SDS-PAGE and transferred to nitrocellulose membranes (Invitrogen by Thermo Fisher Scientific). The membrane was stained with Ponceau S Stain (Boston BioProducts) to verify uniform protein loading. Membranes were blocked with 10% milk and phosphorylation levels of Erk1/2 were assessed by incubating overnight at 4° C. with anti-phospho-p44/42 (Thr202/Tyr204) antibody (Cell Signaling) followed by HRP-conjugated secondary antibody (Jackson Immunoresearch, West Grove, PA). Bands were incubated in Amersham ECL Prime Western Blotting Detection Reagent (GE Healthcare) and visualized using the ChemiDoc MP imaging system (Bio-Rad).

[2] = tested on: IL6; test: IL-6 Quantification Assay (ELISA), LPS-stimulated RAW 264.7; type: cell-based; design: inhibition: dose or concentration left out as unconfirmed; settings: Mus musculus, RAW264.7; read-out: IL-6: % inh.
[3] = tested on: TNF-alpha; test: TNF-alpha Quantification Assay (ELISA), LPS-stimulated RAW 264.7; type: cell-based; settings: Mus musculus, RAW264.7; at 10 μM; read-out: TNFα: % inh.
[4] = tested on: KRas G12D mutant; test: Ras GTP Binding Domain Inhibition Assay (Ras Superfamily Assay); settings: 20 μM compound; for KRas G12D mutant + SOS: % inh.: with SOS; for KRas G12D mutant: % inh.: without SOS
Source text: (§1) Biological Example 3: Ras GTP Binding Domain Inhibition Assay
(§2) The assays described in Example 3 are collectively referred to as the “Ras Superfamily Assay” throughout this application.
(§3) A Ras Superfamily Activity Assay (as disclosed in International Application No. PCT/US2018/038613, filed Jun. 20, 2018, which is incorporated by reference in its entirety) was used as a specific assay to evaluate compounds against the following for the following Ras Superfamily proteins: KRas wild type, KRas Q61H mutant, KRas G12C mutant, KRas G12D mutant, Rac-1, and Rho-A.
(§4) • 25 mM Tris-HCl, pH 7.4 • 27 mM KCl • 137 mM NaCl • 1 mM MgCl2 • 1 mM DTT Buffer-II: • 50 mM Tris-HCl, pH 7.0 • 1 mM MgCl2 • 1 mM DTT
(§5) The small GTPases proteins: KRas wild type. KRas Q61H mutant, KRas G12C mutant, KRas G12D mutants, Rac-1, and Rho-A were expressed as His-tagged proteins. In addition, the Guanosine nucleotide Exchange Factor (GEF) Sos protein (residues 556-1049) was expressed as a His-tagged protein. In cells, the guanine nucleotide exchange factor Sos protein promotes activation of Ras proteins by stimulating an exchange of GDP for GTP. The inclusion of Sos to the Ras GTP binding domain inhibition assay may be considered as an alternative representation of physiological cellular conditions for evaluating the inhibitory activity of some of the tested small molecules.
(§6) For the assay, all purified small GTPases proteins were diluted in Buffer-I or Buffer-II to a final concentration of 10-30 μg/mL. 200 μL of each diluted protein was added to a nickel-coated 96-well plate and incubated overnight at 4° C. Then the protein solution was discarded and 200 μL of Buffer-I or Buffer-II was added to each well in the presence of 1% DMSO. Compounds to be tested were added to the protein-coated wells at final concentration of 20 μM, and incubated for 3 hours at room temperature with and without 10-30 μg/mL of Sos added to the final hour of the incubation. When performing IC50 measurements a serial dilution of all tested concentrations was added. Then Cy3-GTP or Cy5-GTP was added to each well to a final concentration of 100 nM. The labeled GTP was incubated for 45 minutes at room temperature. Following GTP incubation, wells were washed 3× in Buffer-I or Buffer-II and 200 μL of Buffer-I or Buffer-II was added to each well. Following washes, the amount of bound labeled-GTP was measured using a SpectraMax M3 (Molecular Devices).

[5] = tested on: KRas wild type; test: as above; settings: 20 μM compound; for KRas wild type + SOS: % inh.: with SOS; for KRas wild type: % inh.: without SOS
Source text: as §1, §2, §3, §4, §5, §6

[6] = target: T1, Rac-1 (Homo sapiens, UniProt P63000); test: as above; settings: read-out: Rac-1: % inh.
T1 construct: made in house
Source text: as §1, §2, §3, §4, §5, §6

Compound | % inh of Erk1/2 phosphorylation in Panc-1 [1] | inhibition [2] [%] | inhibition at 10 µM [3] [%] | KRas G12D mutant + SOS: % inh. [4] | KRas G12D mutant: % inh. [4] | KRas wild type + SOS: % inh. [5] | KRas wild type: % inh. [5] | inhibition at 20 µM [6] [%]
COc1cc(Nc2nc(-c3nccn3C)nn3cc(-c4ccn(C(C)C)n4)c(C)c23)ncn1 [Compound 6, 6-(1-Isopropyl-1H-pyrazol-3-yl)-N-(6-methoxypyrimidin-4-yl)-5-methyl-2-(1-methyl-1H-imidazol-2-yl)pyrrolo[2,1-f][1,2,4]triazin-4-amine] | 0 (0% inhibition) | 75 to 100 | 25 to 49 | C (C = 50-75% inhibition) | D (D = 76-100% inhibition) | C (C = 50-75% inhibition) | D (D = 76-100% inhibition) | 50 to 75
Cc1c(-c2ccn(C(C)C)n2)cn2nc(-c3ccccn3)nc(O)c12 [Compound 8, 6-(1-Isopropyl-1H-pyrazol-3-yl)-5-methyl-2-(pyridin-2-yl)pyrrolo[2,1-f][1,2,4]triazin-4-ol] | 0 (0% inhibition) | 0 | 0 | A (A = 1-25% inhibition) | 0 (0 = 0% inhibition) | 0 (0 = 0% inhibition) | A (A = 1-25% inhibition) | 0
Cc1c(-c2ccn(C(C)C)n2)cn2nc(-c3nccn3C)nc(Nc3nccn3C)c12 [Compound 93, 6-(1-Isopropyl-1H-pyrazol-3-yl)-5-methyl-N,2-bis(1-methyl-1H-imidazol-2-yl)pyrrolo[2,1-f][1,2,4]triazin-4-amine] | D (85-100% inhibition) | 75 to 100 | 75 to 100 | D (D = 76-100% inhibition) | D (D = 76-100% inhibition) | D (D = 76-100% inhibition) | D (D = 76-100% inhibition) | 76 to 100
COc1cc(Nc2nc(-c3nccn3C)nn3cc(-c4ccccn4)c(C)c23)ncn1 [Compound 94, N-(6-Methoxypyrimidin-4-yl)-5-methyl-2-(1-methyl-1H-imidazol-2-yl)-6-(pyridin-2-yl)pyrrolo[2,1-f][1,2,4]triazin-4-amine] | C* (46-84% activation) | 50 to 74 | 25 to 49 | B (B = 26-49% inhibition) | C (C = 50-75% inhibition) | B (B = 26-49% inhibition) | C (C = 50-75% inhibition) | 50 to 75
